The target of one test is Sphingosine kinase 2 (Homo sapiens, UniProt Q9NRA0). As to the kind of experiment: Inhibition of recombinant full length GST-tagged human SPHK2 expressed in baculovirus expression system using Sphingosine lipid as substrate in presence of ATP after 1 hr by Adapta assay.
For test [1], the target named is Ribosomal protein S6 kinase alpha-1 (Homo sapiens, UniProt Q15418). As to the kind of experiment: Inhibition of recombinant full length human His-tagged RPS6KA1 expressed in baculovirus expression system using […] peptide as substrate incubated for 60 mins in presence of ATP by Z'-LYTE assay.
Sequence of Ribosomal protein S6 kinase alpha-1 (Q15418 whole entry): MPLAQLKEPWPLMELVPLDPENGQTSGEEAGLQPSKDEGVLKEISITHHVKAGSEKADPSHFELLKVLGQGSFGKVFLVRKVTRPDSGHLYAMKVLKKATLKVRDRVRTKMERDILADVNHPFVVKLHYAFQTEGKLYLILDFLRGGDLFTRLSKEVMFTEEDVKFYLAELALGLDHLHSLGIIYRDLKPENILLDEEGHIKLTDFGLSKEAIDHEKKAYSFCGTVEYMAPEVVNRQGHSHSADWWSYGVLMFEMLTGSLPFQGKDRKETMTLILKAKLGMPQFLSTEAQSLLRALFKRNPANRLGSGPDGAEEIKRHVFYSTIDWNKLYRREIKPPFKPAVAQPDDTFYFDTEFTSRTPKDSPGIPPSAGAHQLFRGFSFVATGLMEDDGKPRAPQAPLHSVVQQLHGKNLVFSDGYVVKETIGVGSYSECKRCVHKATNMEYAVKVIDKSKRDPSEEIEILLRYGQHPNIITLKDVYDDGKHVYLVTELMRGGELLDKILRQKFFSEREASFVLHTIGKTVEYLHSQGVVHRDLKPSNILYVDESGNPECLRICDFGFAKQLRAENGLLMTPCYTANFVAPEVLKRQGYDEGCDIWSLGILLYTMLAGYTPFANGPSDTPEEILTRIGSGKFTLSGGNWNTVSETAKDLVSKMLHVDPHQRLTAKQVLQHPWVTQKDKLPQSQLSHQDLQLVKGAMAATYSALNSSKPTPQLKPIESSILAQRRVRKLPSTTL
The target of test [2] is G protein-coupled receptor kinase 5 (Homo sapiens, UniProt P34947). As to the kind of experiment: Inhibition of recombinant full length human GST-tagged GRK5 expressed in baculovirus expression system using serine/threonine-16 peptide as substrate incubated for 60 mins in presence of ATP by Z'-LYTE assay.
Another test deals with Sphingosine kinase 1 (Homo sapiens, UniProt Q9NYA1). As to the kind of experiment: Inhibition of recombinant full length human GST-tagged SPHK1 expressed in baculovirus expression system using sphingosine lipid as substrate incubated for 60 mins in presence of ATP by Adapta assay.
For test [3], the target named is Cysteinyl leukotriene receptor 2 (Homo sapiens) (UniProt Q9NS75). The experiment in a line: Inhibition of human CYSLt2 receptor at 10 uM relative to control.
Another test has as its target Ephrin type-B receptor 4 (Homo sapiens, UniProt P54760). As to the kind of experiment: Inhibition of recombinant human His-tagged EPHB4 (561 to 987 residues) catalytic domain expressed in baculovirus expression system using tyrosine-01 peptide as substrate incubated for 60 mins in presence of ATP by Z'-LYTE assay.
Test [4] concerns the target Tyrosine-protein kinase CSK (Homo sapiens, UniProt P41240). The experiment in a line: Inhibition of recombinant full length human His-tagged CSK expressed in Escherichia coli expression system using tyrosine-2 peptide as substrate incubated for 60 mins in presence of ATP by Z'-LYTE assay.
The target in test [5] is Kappa-type opioid receptor (Homo sapiens) (UniProt P41145). As to the kind of experiment: Displacement of [3H]diprenorphine from full length human recombinant KOP receptor expressed in HEK293 cells at 10 uM measured after 60 mins by radiometric scintillation analysis relative to control. The test is classed as cell-based. A general note: Loss of bound radioactivity is the signal in a displacement assay; it reports binding, not function.

The target of the next test is Activin receptor type-1B (Homo sapiens, UniProt P36896). The experiment in a line: Inhibition of recombinant GST-tagged human ALK4 (150 to 505 residues) expressed in baculovirus expression system using Ser/Thr-16 peptide as substrate incubated for 60 mins in presence of ATP by Z'-LYTE assay.
Sequence of Activin receptor type-1B (P36896 whole entry, the tested form may be a part): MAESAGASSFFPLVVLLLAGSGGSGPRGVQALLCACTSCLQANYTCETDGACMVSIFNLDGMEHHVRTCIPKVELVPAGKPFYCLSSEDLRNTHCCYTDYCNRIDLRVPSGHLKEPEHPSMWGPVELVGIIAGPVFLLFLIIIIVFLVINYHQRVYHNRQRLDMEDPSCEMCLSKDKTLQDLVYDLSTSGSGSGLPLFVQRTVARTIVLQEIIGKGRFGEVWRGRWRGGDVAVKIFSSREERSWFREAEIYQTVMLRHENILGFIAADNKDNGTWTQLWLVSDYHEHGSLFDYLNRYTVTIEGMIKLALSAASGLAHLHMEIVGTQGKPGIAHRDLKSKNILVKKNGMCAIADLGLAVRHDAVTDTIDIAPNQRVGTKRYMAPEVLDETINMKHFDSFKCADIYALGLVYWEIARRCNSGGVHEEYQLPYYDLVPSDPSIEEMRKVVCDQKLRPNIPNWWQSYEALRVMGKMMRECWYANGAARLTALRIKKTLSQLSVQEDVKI
Test [6] addresses Rho-associated protein kinase 1 (Homo sapiens, UniProt Q13464). As to the kind of experiment: Inhibition of recombinant human GST-tagged ROCK1 catalytic domain expressed in baculovirus expression system using serine/threonine-7 peptide as substrate incubated for 60 mins in presence of ATP by Z'-LYTE assay.
The target of test [7] is Mitogen-activated protein kinase 13 (Homo sapiens, UniProt O15264). As to the kind of experiment: Inhibition of recombinant full length human His-tagged p38delta expressed in baculovirus expression system using serine/threonine-3 peptide as substrate incubated for 60 mins in presence of ATP by Z'-LYTE assay.
Sequence of Mitogen-activated protein kinase 13 (O15264 whole entry, the tested form may be a part): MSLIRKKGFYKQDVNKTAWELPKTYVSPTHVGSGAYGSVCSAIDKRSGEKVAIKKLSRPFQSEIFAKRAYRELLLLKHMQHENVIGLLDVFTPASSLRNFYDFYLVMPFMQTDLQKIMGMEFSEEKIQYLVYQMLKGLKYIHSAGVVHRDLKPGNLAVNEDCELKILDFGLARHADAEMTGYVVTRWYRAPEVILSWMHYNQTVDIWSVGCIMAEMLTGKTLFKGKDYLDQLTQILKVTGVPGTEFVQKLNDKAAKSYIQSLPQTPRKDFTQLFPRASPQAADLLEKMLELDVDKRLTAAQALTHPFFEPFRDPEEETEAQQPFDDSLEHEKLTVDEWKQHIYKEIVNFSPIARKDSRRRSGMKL
Test [8] deals with Platelet-derived growth factor receptor beta (Homo sapiens, UniProt P09619). The experiment in a line: Inhibition of recombinant human His-tagged PDGFRbeta cytoplasmic domain expressed in baculovirus expression system using tyrosine-4 peptide as substrate incubated for 60 mins in presence of ATP by Z'-LYTE assay.
The target in test [9] is C-X-C chemokine receptor type 4 (Homo sapiens) (UniProt P61073). As to the kind of experiment: Displacement of [125I]SDF-1alpha from recombinant full length human recombinant CXCR4 expressed in Chem-1 cells at 10 uM measured after 90 mins by radiometric scintillation analysis relative to control. The test is classed as cell-based.
Test [10] addresses Serine/threonine-protein kinase TAO2 (Homo sapiens, UniProt Q9UL54). As to the kind of experiment: Inhibition of recombinant human GST-tagged TAO2 catalytic domain (1 to 314 residues) expressed in baculovirus expression system using serine/threonine-7 peptide as substrate incubated for 60 mins in presence of ATP by Z'-LYTE assay.
Test [11] deals with Serine/threonine-protein kinase Nek1 (Homo sapiens, UniProt Q96PY6). The experiment in a line: Inhibition of recombinant human GST-tagged NEK1 catalytic domain (1 to 505 residues) expressed in baculovirus expression system using serine/threonine-7 peptide as substrate incubated for 60 mins in presence of ATP by Z'-LYTE assay.
Test [12] has as its target Mitogen-activated protein kinase 8 (Homo sapiens, UniProt P45983). As to the kind of experiment: Inhibition of recombinant full length human His-tagged JNK1alpha1 expressed in baculovirus expression system using serine/threonine-4 peptide as substrate incubated for 60 mins in presence of ATP by Z'-LYTE assay.
The target of test [13] is Tyrosine-protein kinase TXK (Homo sapiens, UniProt P42681). As to the kind of experiment: Inhibition of recombinant human GST-tagged TXK catalytic domain (260 to 527 residues) expressed in baculovirus expression system using tyrosine-6 peptide as substrate incubated for 60 mins in presence of ATP by Z'-LYTE assay.
In test [14] the target is Interleukin-1 receptor-associated kinase 1 (Homo sapiens, UniProt P51617). The experiment in a line: Inhibition of recombinant human GST-tagged IRAK1 catalytic domain (194 to 712 residues) expressed in baculovirus expression system using Histone H3 (1-20) peptide as substrate incubated for 60 mins in presence of ATP by Adapta assay.
In test [15] the target is Voltage-gated inwardly rectifying potassium channel KCNH2 (Homo sapiens, UniProt Q12809). As to the kind of experiment: Inhibition of human ERG.
Sequence of Voltage-gated inwardly rectifying potassium channel KCNH2 (Q12809 whole entry): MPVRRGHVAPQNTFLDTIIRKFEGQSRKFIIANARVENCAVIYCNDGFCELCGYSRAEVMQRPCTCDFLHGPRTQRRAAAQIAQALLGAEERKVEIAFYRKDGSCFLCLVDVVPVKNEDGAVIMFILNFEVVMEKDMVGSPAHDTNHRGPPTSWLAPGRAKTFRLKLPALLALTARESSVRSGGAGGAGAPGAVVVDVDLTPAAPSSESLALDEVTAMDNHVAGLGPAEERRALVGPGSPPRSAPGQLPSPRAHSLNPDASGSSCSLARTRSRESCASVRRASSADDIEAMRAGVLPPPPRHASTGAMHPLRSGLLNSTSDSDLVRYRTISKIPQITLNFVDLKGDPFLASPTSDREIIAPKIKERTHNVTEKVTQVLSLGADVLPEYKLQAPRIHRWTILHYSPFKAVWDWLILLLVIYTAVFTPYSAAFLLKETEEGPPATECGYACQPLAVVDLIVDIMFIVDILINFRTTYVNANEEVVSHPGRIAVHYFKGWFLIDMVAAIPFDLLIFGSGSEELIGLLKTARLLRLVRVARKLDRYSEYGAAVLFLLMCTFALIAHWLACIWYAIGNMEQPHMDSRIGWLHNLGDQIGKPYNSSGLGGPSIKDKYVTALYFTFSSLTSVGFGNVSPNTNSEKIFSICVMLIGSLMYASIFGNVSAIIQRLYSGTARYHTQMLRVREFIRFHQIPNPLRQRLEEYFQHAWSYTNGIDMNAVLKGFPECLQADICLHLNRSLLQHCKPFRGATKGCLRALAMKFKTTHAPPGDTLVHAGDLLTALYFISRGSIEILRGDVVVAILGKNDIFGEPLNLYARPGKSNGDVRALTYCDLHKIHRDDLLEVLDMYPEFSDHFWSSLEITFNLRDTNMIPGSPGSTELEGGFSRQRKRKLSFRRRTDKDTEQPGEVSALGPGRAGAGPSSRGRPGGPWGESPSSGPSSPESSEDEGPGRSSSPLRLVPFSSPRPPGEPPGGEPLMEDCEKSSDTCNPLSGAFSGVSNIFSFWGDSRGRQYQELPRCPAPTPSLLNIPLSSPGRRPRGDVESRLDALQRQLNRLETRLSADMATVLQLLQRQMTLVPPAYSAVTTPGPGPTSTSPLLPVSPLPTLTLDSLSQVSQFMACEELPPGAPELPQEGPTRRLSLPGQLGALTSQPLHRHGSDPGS
Test [16] has as its target DNA-dependent protein kinase catalytic subunit (Homo sapiens, UniProt P78527). The experiment in a line: Inhibition of recombinant human DNA-PK expressed in baculovirus expression system using serine/threonine-26 peptide as substrate incubated for 60 mins in presence of ATP by Z'-LYTE assay.
Another test deals with Ephrin type-B receptor 2 (Homo sapiens, UniProt P29323). The experiment in a line: Inhibition of recombinant human GST-tagged EPHB2 catalytic domain (616 to 884 residues) expressed in baculovirus expression system using tyrosine-2 peptide as substrate incubated for 60 mins in presence of ATP by Z'-LYTE assay.
In test [17] the target is Tyrosine-protein kinase ZAP-70 (Homo sapiens, UniProt P43403). As to the kind of experiment: Inhibition of recombinant full length human His-tagged ZAP70 cytoplasmic domain expressed in baculovirus expression system using fluorophore-labeled tyrosine-07 peptide as substrate incubated for 60 mins in presence of ATP by Z'-LYTE assay.
Test [18] deals with GABA-A receptor; anion channel (Rattus norvegicus) (UniProt O09028+P15431+P18506+P18508+P19969+P20236+P23574+P23576+P28471+P28473+P30191+P62813+P63079+P63138+Q91ZM7+Q9ES14). The experiment in a line: Displacement of [3H]-Ro15-1788 from GABA(A) receptor in Wistar rat hippocampus at 10 uM incubated for 120 mins by radiometric scintillation analysis relative to control. Type of test: tissue-based.

For test [19], the target named is cAMP-dependent protein kinase catalytic subunit alpha (Homo sapiens, UniProt P17612). As to the kind of experiment: Inhibition of recombinant human His-tagged PRKACA catalytic domain expressed in Escherichia coli using fluorophore-labeled serine/threonine-1 peptide as substrate incubated for 60 mins in presence of ATP by Z'-LYTE assay.

Each structure is given as a SMILES string.

Sequence of Rho-associated protein kinase 1 (Q13464 whole entry, the tested form may be a part): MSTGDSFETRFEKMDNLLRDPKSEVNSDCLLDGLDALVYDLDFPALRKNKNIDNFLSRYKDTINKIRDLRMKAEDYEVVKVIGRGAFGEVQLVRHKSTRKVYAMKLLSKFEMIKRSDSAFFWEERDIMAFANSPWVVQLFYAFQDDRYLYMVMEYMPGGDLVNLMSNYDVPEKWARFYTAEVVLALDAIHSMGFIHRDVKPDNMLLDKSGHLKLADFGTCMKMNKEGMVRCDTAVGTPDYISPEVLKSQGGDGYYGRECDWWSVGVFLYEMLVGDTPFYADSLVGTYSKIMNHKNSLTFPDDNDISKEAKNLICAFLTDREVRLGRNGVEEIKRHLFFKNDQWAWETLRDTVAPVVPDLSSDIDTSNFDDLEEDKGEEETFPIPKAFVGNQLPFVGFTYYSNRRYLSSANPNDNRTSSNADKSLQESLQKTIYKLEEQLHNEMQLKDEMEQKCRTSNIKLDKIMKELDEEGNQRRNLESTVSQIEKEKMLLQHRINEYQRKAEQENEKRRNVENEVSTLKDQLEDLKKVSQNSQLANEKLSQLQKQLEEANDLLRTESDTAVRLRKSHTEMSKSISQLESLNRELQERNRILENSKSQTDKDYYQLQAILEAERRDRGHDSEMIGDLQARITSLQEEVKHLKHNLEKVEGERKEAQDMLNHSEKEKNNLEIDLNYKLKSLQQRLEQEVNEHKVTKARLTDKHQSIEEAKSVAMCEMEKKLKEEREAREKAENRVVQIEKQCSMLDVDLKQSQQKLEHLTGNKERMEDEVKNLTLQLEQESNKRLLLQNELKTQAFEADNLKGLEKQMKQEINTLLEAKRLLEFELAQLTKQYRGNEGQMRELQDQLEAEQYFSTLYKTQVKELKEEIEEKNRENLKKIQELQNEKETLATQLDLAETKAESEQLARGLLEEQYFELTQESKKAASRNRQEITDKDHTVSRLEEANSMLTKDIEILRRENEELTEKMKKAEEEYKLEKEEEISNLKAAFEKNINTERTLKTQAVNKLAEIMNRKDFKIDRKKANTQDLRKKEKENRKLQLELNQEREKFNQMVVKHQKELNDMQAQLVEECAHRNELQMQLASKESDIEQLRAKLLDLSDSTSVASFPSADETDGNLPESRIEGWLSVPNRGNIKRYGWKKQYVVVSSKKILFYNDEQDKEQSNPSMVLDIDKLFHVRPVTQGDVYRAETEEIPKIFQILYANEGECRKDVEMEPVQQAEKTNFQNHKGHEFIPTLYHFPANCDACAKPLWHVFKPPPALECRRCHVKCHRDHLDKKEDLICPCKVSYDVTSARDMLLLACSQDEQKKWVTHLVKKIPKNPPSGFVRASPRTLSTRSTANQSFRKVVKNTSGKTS
Sequence of Sphingosine kinase 2 (Q9NRA0 whole entry): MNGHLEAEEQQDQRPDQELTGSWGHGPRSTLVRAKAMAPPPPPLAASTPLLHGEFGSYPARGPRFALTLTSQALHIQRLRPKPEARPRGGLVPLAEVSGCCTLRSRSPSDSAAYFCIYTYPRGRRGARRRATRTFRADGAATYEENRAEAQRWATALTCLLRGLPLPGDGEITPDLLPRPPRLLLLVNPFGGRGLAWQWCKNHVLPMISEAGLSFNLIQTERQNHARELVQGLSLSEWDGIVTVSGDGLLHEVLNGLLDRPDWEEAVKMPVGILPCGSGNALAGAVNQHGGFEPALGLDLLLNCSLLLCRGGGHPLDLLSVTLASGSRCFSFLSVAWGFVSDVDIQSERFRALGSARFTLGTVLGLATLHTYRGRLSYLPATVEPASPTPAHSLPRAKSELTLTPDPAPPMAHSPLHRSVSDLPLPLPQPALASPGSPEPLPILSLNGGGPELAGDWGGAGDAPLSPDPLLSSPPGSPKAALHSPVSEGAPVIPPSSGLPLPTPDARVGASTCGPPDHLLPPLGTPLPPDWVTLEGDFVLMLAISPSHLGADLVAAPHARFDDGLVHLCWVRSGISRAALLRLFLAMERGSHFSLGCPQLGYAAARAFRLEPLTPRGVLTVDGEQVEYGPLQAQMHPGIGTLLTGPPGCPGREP

Usually IC50 stands for the concentration at which inhibition is half-maximal. The term inhibition denotes the relative decrease from the control value, in per cent. On to `C[C@@H]1C[C@H]1C(=O)N1CCN(c2cnc(C#N)c(-c3cnn(C)c3)n2)C[C@H]1C`, for which the IC50 on Sphingosine kinase 2 is over 100 µM; in [1], over 100 µM; in test [2] it was over 100 µM; on Sphingosine kinase 1, 13.8 µM; at Ephrin type-B receptor 4 it was over 100 µM; in test [4] it was over 100 µM. Moreover, the concentration for half-maximal inhibition (IC50) (at Activin receptor type-1B; in test [6]; in test [7]; in test [8]; in test [10]; in test [11]) was over 100 µM in each case. For the same molecule, the concentration for half-maximal inhibition (IC50) in test [12] is over 100 µM; in test [13], over 100 µM; in [14] it was over 100 µM; in [15], 23 µM; in test [16] it was over 100 µM; on Ephrin type-B receptor 2, over 100 µM. Besides, the IC50 in [17] and in test [19] was over 100 µM in each case. The inhibition in [3] was 15%; in [5] it was 5%; in [9], 5%; in test [18], -3%.

Source of the values: ChEMBL document CHEMBL4602617, “Discovery and optimization of heteroaryl piperazines as potent and selective PI3Kδ inhibitors” (Bioorg Med Chem Lett, 2020).
